Experiments:
Assay type in all cases: in vivo
Spodoptera frugiperda = Spodoptera frugiperda spray test; details: in Zea mays, 168 h, read-out: activity (mortality)
Description: Spodoptera frugiperda—Spray Test
Solvent: 78.0 parts by weight acetone • 1.5 parts by weight dimethylformamide
(§1) Emulsifier: alkylarylpolyglycol ether
(§2) To produce a suitable preparation of active compound, 1 part by weight of active compound is mixed with the stated amount of solvents and is diluted with water, containing an emulsifier concentration of 1000 ppm, to the desired concentration. Further test concentrations are prepared by dilution with emulsifier containing water.
Maize (Zea mays) leaf sections are sprayed with a preparation of the active ingredient of the desired concentration. Once dry, the leaf sections are infested with fall armyworm larvae (Spodoptera frugiperda).
After 7 days mortality in % is determined. 100% means all caterpillars have been killed and 0% means none of the caterpillars have been killed.

Ctenocephalides felis = Ctenocephalides felis oral test (CTECFE); details: 48 h, 100 ppm in cattle blood, after 2 days
Description: Ctenocephalides felis—Oral Test (CTECFE)
(§3) Solvent: dimethyl sulfoxide
To produce a suitable preparation of active compound, 10 mg of active compound are dissolved in 0.5 ml solvent, and the concentrate is diluted with cattle blood to the desired concentration.
Approximately 20 adult unfed cat fleas (Ctenocephalides felis) are placed in flea chambers. The blood chamber, sealed with parafilm on the bottom, are filled with cattle blood supplied with compound solution and placed on the gauze covered top of the flea chamber, so that the fleas are able to suck the blood. The blood chamber is heated to 37° C. whereas the flea chamber is kept at room temperature.
After 2 days mortality in % is determined. 100% means all the fleas have been killed; 0% means none of the fleas have been killed.

Boophilus microplus = Boophilus microplus injection test (BOOPMI Injection); details: Rhipicephalus microplus, 168 h, injection into adult engorged female ticks, egg deposition after 7 days, read-out: activity (efficacy, infertile eggs); for pest or weed control at 0.02 mg: 20 μg/animal; for pest or weed control at 0.004 mg: 4 μg/animal
Description: Boophilus microplus—Injection Test (BOOPMI Injection)
as §3
To produce a suitable preparation of active compound, 10 mg of active compound are dissolved in 0.5 mL solvent, and the concentrate is diluted with solvent to the desired concentration.
Five adult engorged female ticks (Boophilus microplus) are injected with 1 μL compound solution into the abdomen. The ticks are transferred into replica plates and incubated in a climate chamber.
After 7 days egg deposition of fertile eggs is monitored. Eggs where fertility is not visible are stored in a climate chamber till hatching after about 42 days. An efficacy of 100% means all eggs are infertile; 0% means all eggs are fertile.

Diabrotica balteata = Diabrotica balteata spray test; details: 168 h, wheat seeds, after 7 days, read-out: activity (efficacy, seedlings grown); for pest or weed control at 160 µg/disc, 500 g/ha: 500 g/ha (=160 μg/well)
Description: Diabrotica balteata—Spray Test
Solvent: 78.0 parts by weight of acetone • • 1.5 parts by weight of dimethylformamide
as §1
as §2, with “solvent,” for “solvents”, “and the concentrate” for “and”
Soaked wheat seeds (Triticum aestivum) are placed in a multiple well plate filled with agar and some water and are incubated for 1 day to germinate (5 seeds per well). The germinated wheat seeds are sprayed with a test solution containing the desired concentration of the active ingredient. Afterwards each unit is infected with 10-20 larvae of the banded cucumber beetle (Diabrotica balteata).
After 7 days efficacy in % is determined. 100% means all the seedlings have grown up like in the untreated, uninfected control; 0% means none of the seedlings have grown.

[1] = tested on: Rhipicephalus microplus (strain Parkhurst, resistant against synthetic pyrethroids); assay: Rhipicephalus microplus in-vitro contact test, larval cattle tick (BOOPMI Contact); details: 5 μg/cm^2 (=500 g/ha), after 48 hours, read-out: activity (efficacy, larvae dead or moribund)
Description: Rhipicephalus microplus—in-Vitro Contact Tests Larval Cattle Tick (Strain Parkhurst, Resistant Against Synthetic Pyrethroids) (BOOPMI Contact)
9 mg compound is solved in 1 ml acetone and diluted with acetone to the desired concentration. 250 μL of the test solution is filled in 25 ml glass test tubes and homogeneously distributed on the inner walls by rotation and tilting on a shaking device (2 h at 30 rpm). With a compound concentration of 900 ppm, an inner surface of 44.7 cm^2 and a homogeneous distribution, a dose of 5 μg/cm^2 is achieved.
After the solvent has evaporated, each test tube is filled with 20-50 cattle tick larvae (Rhipicephalus microplus), closed with a perforated lid and incubated in a horizontal position at 85% relative humidity and 27° C. in an incubator. After 48 hours efficacy is determined. The larvae are patted on the ground of the tubes and negative geotactic behaviour is recorded.
An efficacy of 100% means all larvae are dead or moribund; 0% means no larvae are dead or moribund.

Row | SMILES | mortality at 500 g/ha (Spodoptera frugiperda) [%] | mortality at 100 ppm (Ctenocephalides felis) [%] | pest or weed control at 0.02 mg (Boophilus microplus) [%] | pest or weed control at 100 g/ha (Diabrotica balteata) [%] | pest or weed control at 160 µg/disc, 500 g/ha (Diabrotica balteata) [%] | pest or weed control at 0.004 mg (Boophilus microplus) [%] | mortality at 100 g/ha (Spodoptera frugiperda) [%] | pest or weed control at 5 µg/cm2 [1] [%]
1 | C[C@H](Nc1nc2cc(Br)cc(Cl)c2o1)c1ncnn1-c1ncccn1 [Example I-010] | 100 | 100 | 100 | 80 | 100 | – | – | –
2 | Cc1nc([C@H](C)Nc2nc3cc(C(F)(F)F)cc(C(F)(F)F)c3o2)n(-c2ncccn2)n1 [Example I-012] | 100 | 100 | 100 | – | – | 100 | – | –
3 | C[C@H](Nc1nc2cc(C(F)(F)F)cc(C(F)(F)F)c2o1)c1ncnn1-c1ccc(C#N)cn1 [Example I-026] | 100 | 100 | 100 | – | 100 | 100 | 100 | 100
4 | C[C@H](Nc1nc2cc(C(F)(F)F)c(Cl)cc2o1)c1ncnn1-c1ccc(Cl)cn1 [Example I-033] | 100 | 90 | – | – | – | – | – | 100
5 | C[C@H](Nc1nc2cc(C(F)(F)F)cc(Cl)c2o1)c1ncnn1-c1ncc(Br)s1 [Example I-035, N-{(1S)-1-[1-(5-bromo-1,3-thiazol-2-yl)-1H-1,2,4-triazol-5-yl]ethyl}-7-chloro-5-(trifluoromethyl)-1,3-benzoxazol-2-amine] | – | 100 | – | 100 | – | 80 | – | –
6 | C[C@H](Nc1nc2cc(C(F)(F)F)cc(Cl)c2o1)c1ncnn1-c1cnc(C#N)cn1 [Example I-041, 5-{5-[(1S)-1-{[7-Chlor-5-(trifluormethyl)-1,3-benzoxazol-2-yl]amino}ethyl]-1H-1,2,4-triazol-1-yl}pyrazin-2-carbonitril] | – | 90 | – | 100 | – | – | – | 80
7 | C[C@H](Nc1nc2cc(C(F)(F)F)cc(Cl)c2o1)c1ncnn1-c1ncc(Br)cn1 [Example I-044, N-{(1S)-1-[1-(5-Brompyrimidin-2-yl)-1H-1,2,4-triazol-5-yl]ethyl}-7-chlor-5-(trifluormethyl)-1,3-benzoxazol-2-amin] | – | 100 | – | 100 | – | 100 | 100 | 100
8 | C[C@H](Nc1nc2cc(C(F)(F)F)cc(Cl)c2o1)c1ncnn1-c1nccs1 [Example I-050, 7-Chlor-N-{(1S)-1-[1-(1,3-thiazol-2-yl)-1H-1,2,4-triazol-5-yl]ethyl}-5-(trifluormethyl)-1,3-benzoxazol-2-amin] | – | 90 | 80 | – | – | 80 | – | –
9 | Cc1nc([C@H](C)Nc2nc3cc(C(F)(F)F)cc(Br)c3o2)n(-c2ncccn2)n1 [Example I-053, 7-Bromo-N-{(1S)-1-[3-methyl-1-(pyrimidin-2-yl)-1H-1,2,4-triazol-5-yl]ethyl}-5-(trifluormethyl)-1,3-benzoxazol-2-amin] | – | 100 | 100 | – | 100 | 100 | – | –
10 | C[C@H](Nc1nc2cc(C(F)(F)F)c(Cl)cc2o1)c1ncnn1-c1ncc(C2COC2)cn1 [Example I-056, 6-Chloro-N-[(1S)-1-{1-[5-(oxetan-3-yl)pyrimidin-2-yl]-1H-1,2,4-triazol-5-yl}ethyl]-5-(trifluoromethyl)-1,3-benzoxazol-2-amine] | – | 100 | 100 | – | – | 80 | – | 80
11 | C[C@H](Nc1nc2cc(S(F)(F)(F)(F)F)cc(Cl)c2o1)c1ncnn1-c1ncccn1 [Example I-069, 7-Chlor-5-(pentafluor-lambda^6-sulfanyl)-N-{(1S)-1-[1-(pyrimidin-2-yl)-1H-1,2,4-triazol-5-yl]ethyl}-1,3-benzoxazol-2-amin] | – | 100 | – | 100 | – | 100 | 100 | 80
12 | C[C@H](Nc1nc2cc(Cl)c(SC3CC3)cc2o1)c1ncnn1-c1ncccn1 [Example I-072, 5-Chlor-6-(cyclopropylsulfanyl)-N-{(1S)-1-[1-(pyrimidin-2-yl)-1H-1,2,4-triazol-5-yl]ethyl}-1,3-benzoxazol-2-amin] | – | 100 | – | – | – | – | – | 90
13 | CCSc1cc2oc(N[C@@H](C)c3ncnn3-c3ncccn3)nc2cc1Cl [Example I-073, 5-Chor-6-(ethylsulfanoyl)-N-{(1S)-1-[1-(pyrimidin-2-yl)-1H-1,2,4-triazol-5-yl]ethyl}-1,3-benzoxazol-2-amin] | – | 90 | 100 | – | – | – | – | 100
14 | C[C@H](Nc1nc2cc(C(C)(C)C)cc(Cl)c2o1)c1ncnn1-c1ncccn1 [Example I-075, 5-tert-Butyl-7-chlor-N-{(1S)-1-[1-(pyrimidin-2-yl)-1H-1,2,4-triazol-5-yl]ethyl}-1,3-benzoxazol-2-amin] | – | 80 | 100 | – | – | 100 | – | –
15 | CSc1cc2oc(N[C@@H](C)c3ncnn3-c3ncccn3)nc2cc1Cl [Example I-076, 5-Chlor-6-(methylsulfanyl)-N-{(1S)-1-[1-(pyrimidin-2-yl)-1H-1,2,4-triazol-5-yl]ethyl}-1,3-benzoxazol-2-amin] | – | 100 | 100 | – | – | 100 | – | 90
16 | C[C@H](Nc1nc2cc(OC(F)(F)F)cc(Cl)c2o1)c1ncnn1-c1ncc(Br)cn1 [Example I-078, N-{(1S)-1-[1-(5-Brompyrimidin-2-yl)-1H-1,2,4-triazol-5-yl]ethyl}-7-chlor-5-(trifluormethoxy)-1,3-benzoxazol-2-amin] | – | 100 | – | 100 | – | – | – | –
17 | C[C@H](Nc1nc2c(C(F)(F)F)cc(Br)cn2n1)c1ncnn1-c1ncccn1 [Example I-095, 6-bromo-N-{(1S)-1-[1-(pyrimidin-2-yl)-1H-1,2,4-triazol-5-yl]ethyl}-8-(trifluoromethyl)[1,2,4]triazolo[1,5-a]pyridin-2-amine] | – | 100 | – | – | – | – | – | 80

— patent publication US12384769B2, “Heteroaryl-substituted aminoalkyl azole compounds as pesticides” (Elanco Animal Health GmbH, priority 2019, dated 2025)
